# Experimental data reported in patent publication US11298363B2, “Triazolobenzazepines as vasopressin V1a receptor antagonists” (RICHTER GEDEON NYRT., priority 2017, dated 2022).
# Structures can show the parent of a compound that is named as a salt.
# What was measured:
# [1] = target: T1, human vasopressin V1a receptor (Homo sapiens, UniProt P37288); assay: Functional assay on human vasopressin V1a receptor expressing cell line (intracellular Ca2+ fluorescence); assay type: cell-based; settings: for IC50: 1321N1 cells, (Arg8)-vasopressin at EC80, read-out: IC50 (nM) on hV1a cell line; for inhibition at 1 µM: read-out: % at 1 μM, printed in the column IC50 (nM) on hV1a cell line
# Protocol: Functional Assay to Test Compounds on Human Vasopressin V1a Receptor Expressing Cell Line
# The ordinary secondary messenger pathway of the measured GPCR receptor was used, the endogenous Gq-associated system.
# Using 30,000 cells/plate, compounds were measured on 96-well plates. The buffer composition of the measurements was the following (expressed in mM): 140 NaCl, 5 KCl, 2 CaCl2), 2 MgCl2, 10 glucose, 10 HEPES (4-(2-hydroxyethyl)-1-piperazine-ethanesulfonic acid), 2 probenecid, pH=7.4. FLIPR Calcium 5 kit (Molecular Devices) was used as fluorescent dye, the medium was not removed prior to filling with the dye and the cells were not washed out either before or after. The incubation was performed at room temperature, the final concentration of DMSO was 1%. The materials to be measured were administered in 15 to 20 minutes pretreatment, at least two parallels of each compound in each concentration was measured.
# Fluorescence signal was used to determine the intracellular Ca^2+ level, the reader was FlexStation II96. […] The fluorescence signal was logged in every 1.4 seconds for 1 minute. The reference compounds used were the following: (Arg^8)-vasopressin as agonist at concentration of EC80, determined for each plate, and relcovaptan as antagonist at 1 μM. The % of inhibition at each concentration and the IC50 value of the compounds were determined where a concentration line was also measured.
# The total AVP concentration-response curve was recorded on each plate. The effect of compounds measured was expressed by percentage of relative inhibition compared to control response. […] The average IC50 values were calculated from at least three independent measurements in all cases.
# [2] = target: T1, human vasopressin V1a receptor; assay: Human vasopressin V1a receptor binding assay; settings: 1321N1 cell membranes, [3H]vasopressin; read-out: Ki (nM) on hV1a cell line
# Protocol: Human Vasopressin V1a Receptor Binding Assay
# Cells were suspended in preparative buffer (50 mM Tris, 1 mM EDTA, 0.1 mM PMSF) and homogenized with glass homogenizing potter. To separate the raw membrane fraction two consecutive centrifugation procedures (40,000 g for 20 minutes at 4° C.) were executed, then the membrane was taken into the preparatory buffer during a final washing step, it was divided into aliquots which were stored at −80° C. until the time of measurement.
# To determine the final affinity value, the results of at least two independent experiments were taken into account.
# Non-specific binding values were determined in the presence of unlabeled 1.2×10^−6 M (Arg^8)-vasopressin. Samples were incubated in a total volume of 0.33 ml for 60 minutes at 27° C. Membrane-bound and free ligands were separated by filtration through a 0.5% polyethyleneimine-impregnated UniFilter® GF/B™. After drying the filter plates, 40 μl Microscint-20 (Packard) scintillation cocktail was added to the samples. Finally, radioactivity was measured using MicroBeta^2 Microplate Counter (Perkin Elmer).
# During fitting, the asymptotes are not fixed. The K values (inhibition constant) are given with Cheng-Prusoff equation Ki=IC50/[1+(L/KD)] wherein [L] is the radioligand concentration used in the experiment and [KD] is the affinity of the radioactively labelled ligand for the given receptor. The KD is determined beforehand using the Scatchard curve.
# T1 sequence (P37288 whole entry): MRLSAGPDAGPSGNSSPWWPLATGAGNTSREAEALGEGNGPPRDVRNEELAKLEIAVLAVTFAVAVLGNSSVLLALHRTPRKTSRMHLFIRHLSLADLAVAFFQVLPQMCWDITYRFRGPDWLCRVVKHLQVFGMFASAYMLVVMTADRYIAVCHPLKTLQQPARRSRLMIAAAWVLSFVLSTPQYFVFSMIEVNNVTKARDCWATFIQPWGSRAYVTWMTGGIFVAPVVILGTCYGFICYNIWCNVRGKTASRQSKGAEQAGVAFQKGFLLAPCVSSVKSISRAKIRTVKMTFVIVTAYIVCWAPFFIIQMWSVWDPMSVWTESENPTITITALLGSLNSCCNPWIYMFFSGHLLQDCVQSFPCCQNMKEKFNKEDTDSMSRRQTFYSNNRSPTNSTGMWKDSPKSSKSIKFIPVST
IC50 [1],Ki [2],inhibition at 1 µM [1],SMILES
21 nM,7.5 nM,–,"OC1Cc2cc(Cl)ccc2-n2c(nnc2[C@H]2CC[C@H](C(F)(F)F)CC2)C1 (stereo partly drawn) [Example 72, 8-chloro-1-[trans-4-(trifluoromethyl)cyclohexyl]-5,6-dihydro-4H-[1,2,4]triazolo[4,3-a][1]benzazepine-5-ol]"
3.3 nM,1.6 nM,–,"CN1C[C@]2(CC[C@H](c3nnc4n3-c3ccc(Cl)cc3CC3(C4)OCCO3)CC2)OC1=O [Example 73, (cis)-8-(8′-chloro-4′H,6′H-spiro[1,3-dioxolane-2,5′-[1,2,4]triazolo[4,3-a][1]benzazepine]-1′-il)-3-methyl-1-oxa-3-azaspiro[4.5]decan-2-one]"
10.4 nM,3.7 nM,–,"CN1C[C@]2(CC[C@@H](c3nnc4n3-c3ccc(Cl)cc3CC3(C4)OCCO3)CC2)OC1=O [Example 75, (trans)-8-(8′-chloro-4′H, 6′H-spiro[1,3-dioxolane-2,5′-[1,2,4]triazolo[4,3-a][1]benzazepin]-1′-yl)-3-methyl-1-oxa-3-azaspiro[4.5]decan-2-one]"
2.2 nM,1.1 nM,–,"CN([C@H]1Cc2cc(Cl)ccc2-n2c(nnc2[C@H]2CC[C@H](Oc3ccccn3)CC2)C1)S(C)(=O)=O [Example 76, N-{(5S)-8-chloro-1-[trans-4-(pyridin-2-yloxy)cyclohexyl]-5,6-dihydro-4H-[1,2,4]triazolo[4,3-a][1]benzazepin-5-yl}-N-methylmethanesulfonamide]"
18 nM,1.9 nM,–,"CCN[C@H]1Cc2cc(Cl)ccc2-n2c(nnc2[C@H]2CC[C@H](Oc3ccccn3)CC2)C1 [Example 77, (5S)-8-chloro-N-ethyl-1-[trans-4-(pyridin-2-yloxy)cyclohexyl]-5,6-dihydro-4H-[1,2,4]triazolo[4,3-a][1]benzazepine-5-amine]"
12 nM,1.7 nM,–,"CN[C@H]1Cc2cc(Cl)ccc2-n2c(nnc2[C@H]2CC[C@H](Oc3ccccn3)CC2)C1 [Example 78, (5S)-8-chloro-N-methyl-1-[trans-4-(pyridin-2-yloxy)cyclohexyl]-5,6-dihydro-4H-[1,2,4]triazolo[4,3-a][1]benzazepine-5-amine]"
1860 nM,71 nM,–,Clc1ccc2c(c1)CC1(Cc3nnc(C4CN(c5ncccn5)C4)n3-2)OCCO1 [Example 79]
520 nM,58 nM,–,O=C(N[C@H]1Cc2cc(Cl)ccc2-n2c(nnc2[C@H]2CC[C@H](Oc3ccccn3)CC2)C1)c1ccc(F)cc1 [Example 80]
1.4 nM,0.2 nM,–,"FC(F)(F)[C@H]1CC[C@H](c2nnc3n2-c2ccc(Br)cc2CC2(C3)OCCO2)CC1 [Example 81, 8′-bromo-1′-[trans-4-(trifluoromethyl)cyclohexyl]-4′H,6′H-spiro[1,3-dioxolane-2,5′-[1,2,4]triazolo[4,3-a][1]benzazepine]]"
445 nM,29 nM,–,"CC(C)NC1Cc2cc(C#N)ccc2-n2c(nnc2[C@H]2CC[C@H](Oc3ccccn3)CC2)C1 (stereo partly drawn) [Example 82, 5-(propan-2-ylamino)-1-[trans-4-(pyridin-2-yloxy)cyclohexyl]-5,6-dihydro-4H-[1,2,4]triazolo[4,3-a][1]benzazepin-8-carbonitrile trifluoroacetate]"
44 nM,4.4 nM,–,"Fc1ccc(CN[C@H]2Cc3cc(Cl)ccc3-n3c(nnc3[C@H]3CC[C@H](Oc4ccccn4)CC3)C2)cc1 [Example 83, (S-8-chloro-N-4-fluorobenzyl)-1-[trans-4-pyridin-2-loxcyclohexyl]-5,6-dihydro-4H-[1,2,4]triazolo[4,3-a][1]benzazepine-5-amine]"
72 nM,11.4 nM,–,"N#Cc1ccc2c(c1)CC1(Cc3nnc([C@H]4CC[C@H](C(F)(F)F)CC4)n3-2)OCCO1 [Example 84, 1′-[trans-4-(trifluoromethyl)cyclohexyl]-4′H,6′H-spiro[1,3-dioxolane-2,5′-[1,2,4]triazolo[4,3-a][1]benzazepine]-8′-carbonitrile]"
1.8 nM,0.4 nM,–,"O=C([C@H]1CC[C@H](c2nnc3n2-c2ccc(Br)cc2CC2(C3)OCCO2)CC1)N1CCCCC1 [Example 85, [Trans-4-(8′-bromo-4′H,6′H-spiro[1,3-dioxolane-2,5′-[1,2,4]triazolo[4,3-a][1]benzazepin]-1′-yl)cyclohexyl](piperidin-1-yl)methanone]"
12 nM,2.2 nM,–,"COC(=O)[C@H]1CC[C@H](c2nnc3n2-c2ccc(Br)cc2CC(=O)C3)CC1 [Example 86, methyl trans-4-(8-bromo-5-oxo-5,6-dihydro-4H-[1,2,4]triazolo[4,3-a][1]benzazepin-1-yl)cyclohexane carboxylate]"
57 nM,2.5 nM,–,"O=C1Cc2cc(Br)ccc2-n2c(nnc2[C@H]2CC[C@H](C(=O)N3CCCCC3)CC2)C1 [Example 87, 8-bromo-1-[trans-4-(piperidin-1-ylcarbonyl)cyclohexyl]-4H-[1,2,4]triazolo[4,3-a][1]benzazepin-5(6H)-one]"
152 nM,10.2 nM,–,"N#Cc1ccc2c(c1)CC1(Cc3nnc([C@H]4CC[C@H](C(=O)N5CCCCC5)CC4)n3-2)OCCO1 [Example 90, 1′-[trans-4-(piperidin-1-ylcarbonyl)cyclohexyl]-4′H,6′H-spiro[1,3-dioxolane-2,5′-[1,2,4]triazolo[4,3-a][1]benzazepin]-8′-carbonitrile]"
45 nM,9.1 nM,–,"O=C1Cc2cc(Br)ccc2-n2c(nnc2[C@H]2CC[C@H](C(F)(F)F)CC2)C1 [Example 91, 8-bromo-1-[trans-4-(trifluoromethyl)cyclohexyl]-4H-[1,2,4]triazolo[4,3-a][1]benzazepin-5(6H)-one]"
16 nM,1.9 nM,–,"O=C([C@H]1CC[C@H](c2nnc3n2-c2ccc(Br)cc2CC(O)C3)CC1)N1CCCCC1 (stereo partly drawn) [Example 92, [Trans-4-(8-bromo-5-hydroxy-5,6-dihydro-4H-[1,2,4]triazolo[4,3-a][1]benzazepin-1-yl)cyclohexyl](piperidin-1-yl)methanone]"
16 nM,3.2 nM,–,OC1Cc2cc(Br)ccc2-n2c(nnc2[C@H]2CC[C@H](C(F)(F)F)CC2)C1 (stereo partly drawn) [Example 93]
23 nM,2 nM,–,"Clc1ccc2c(c1)CC1(Cc3nnc(N4CCC(N5CCCCC5)CC4)n3-2)OCCO1 [Example 94, 1′-(1,4′-bipiperidin-1′-yl)-8′-chloro-4′H,6′H-spiro[1,3-dioxolane-2,5′-[1,2,4]triazolo[4,3-a][1]benzazepine]]"
–,547 nM,22%,"CC(C)(C)OC(=O)NC1Cc2cc(Cl)ccc2-n2c(nnc2N2CCC(N3CCCCC3)CC2)C1 (stereo not drawn) [Example 95, Tert-butyl [1-(1,4′-bipiperidin-1′-yl)-8-chloro-5,6-dihydro-4H-[1,2,4]triazolo[4,3-a][1]benzazepin-5-yl]carbaminate]"
–,122 nM,34%,"CN(Cc1ccc(F)cc1)[C@H]1Cc2cc(Cl)ccc2-n2c(nnc2[C@H]2CC[C@H](Oc3ccccn3)CC2)C1 [Example 97, (5S)-8-chloro-N-(4-fluorobenzyl)-N-methyl-1-[trans-4-(pyridin-2-yloxy)cyclohexyl]-5,6-dihydro-4H-[1,2,4]triazolo[4,3-a][1]benzazepin-5-amine]"
39 nM,2.1 nM,–,"C=CC(=O)N[C@H]1Cc2cc(Cl)ccc2-n2c(nnc2[C@H]2CC[C@H](Oc3ccccn3)CC2)C1 [Example 98, N-{(5S)-8-chloro-1-[trans-4-(pyridin-2-yloxy)cyclohexyl]-5,6-dihydro-4H-[1,2,4]triazolo[4,3-a][1]benzazepin-5-yl}prop-2-enamide]"
23 nM,5.9 nM,–,"O=C1Cc2ccccc2-n2c(nnc2[C@H]2CC[C@H](Oc3ccccn3)CC2)C1 [Example 102, 1-[trans-4-(pyridin-2-yloxy)cyclohexyl]-4H-[1,2,4]triazolo[4,3-a][1]benzazepin-5(6H)-one]"
